For assay [1], the system named is Ctenocephalides Felis (Cat Flea). Put plainly: Activity in vitro against Ctenocephalides felis (cat flea), Assay A. Conditions: Ctenocephalides felis; at 100 ppm; adult fleas fed on treated blood for 24 h; dead fleas counted; read-out: efficacy (EC80). The method, then:
Activity In Vitro Against Ctenocephalides Felis (Cat Flea)—Assay A
A mixed adult population of fleas is placed in a suitably formatted 96-well plate allowing fleas to access and feed on treated blood via an artificial feeding system. Fleas are fed on treated blood for 24 h, after which the compound effect is recorded. Insecticidal activity is determined on the basis of the number of dead fleas recovered from the feeding system.

Assay [2] relates to Lucilla Cuprina (Australian sheep blowfly). In words: Activity in vitro against Lucilla cuprina (Australian sheep blowfly), Assay A. As to conditions: Lucilia cuprina, 96 h; at 32 ppm; eggs on agar-based medium, 4 days at 28° C. and 60% relative humidity; read-out: efficacy (EC80). The procedure:
Activity in vitro against Lucilla Cuprina (Australian sheep blowfly)—Assay A
Freshly laid blowfly eggs are used to seed a suitably formatted microplate containing the test substances to be evaluated for antiparasitic activity. Each compound is tested by serial dilution in order to determine its minimum efficacy dose. The test compounds are embedded in an agar-based nutritive medium allowing the full development of the eggs into 3rd instar larvae. The incubation lasts for 4 days at 28° C. and 60% relative humidity. Egg-hatching and ensuing larval development are also recorded to identify a possible growth-regulating activity.

Assay [3] concerns Rhipicephalus sanguineus (Dog Tick). In words: Activity in vitro against Rhipicephalus sanguineus (dog tick), Assay A, contact test. Conditions: Rhipicephalus sanguineus, 168 h, at 100 ppm, adult ticks, 28° C. and 80% relative humidity for 7 days, read-out: efficacy (EC80). The method, then: Activity In Vitro Against Rhipicephalus sanguineus (Dog Tick)—Assay A
A contact test is performed by pre-coating microplate with serial dilution of compound allowing evaluating anti-parasitic activity by contact against ticks. A mixed adult tick population is then distributed to each well of the plate and incubated at 28° C. and 80% relative humidity for 7 days, during which the effect of the test compound is monitored. Acaricidal activity is confirmed if and when adult ticks are dead.

Another assay relates to Lice (Polyplax serrata). Put plainly: Activity in vivo against lice (Polyplax serrata) in mice (topical). Conditions: pour-on application, live lice on day +4 and +14, Henderson & Tilton formula, read-out: efficacy (EC90). The procedure: Activity In Vivo Against Lice (Polyplax serrata) in Mice (Topical) Mice naturally infected with P. serrata are treated with the formulated test compound on day 0 by pour-on application. On day +4 and +14, efficacy is evaluated by counting the number of live lice under a binocular. Efficacy at the two time points is expressed as a comparison of lice numbers counted on the same mouse before treatment, using the Henderson & Tilton formula, taking also into account lice numbers found on mice treated with the empty formulation (placebo group): [formula] n=number of lice, T=treated group, Co=control/placebo group.

Assay [4] concerns Engorged Female Rhipicephalus microplus (Cattle Tick). In words: Activity in vitro against engorged female Rhipicephalus microplus (cattle tick), contact test. Conditions: 672 h, organophosphorous-resistant Ultimo strain, evaluation 28 days later on mortality, oviposition and hatched larvae, read-out: efficacy (EC80). The method, then: Activity In Vitro Against Engorged Female Rhipicephalus microplus (Cattle Tick)
A contact test is performed by pre-coating 6-well microplates with serial dilution of the compound to be evaluated for anti-parasitic activity. 10 engorged female ticks of the organophosphorous-resistant Ultimo strain are distributed to each well in triplicates. Plates are then incubated at 28° C. and 80% relative humidity. Evaluation takes place 28 days later based on mortality, oviposition and hatched larvae. […] Activity In Vivo Against Rhipicephalus sanguineus Nymphs on Mongolian Gerbils (Meriones unguiculatus) (Spray Application)

With `CC(c1ncnn1-c1ccccn1)N(CC1COC1)C(=O)c1cc(C(F)(F)F)cc(C(F)(F)F)c1` (stereo not drawn) [Example 13, N-(Oxetan-3-ylmethyl)-N-[1-[2-(2-pyridyl)-1,2,4-triazol-3-yl]ethyl]-3,5-bis(trifluoromethyl)benzamide], the pest or weed control at 100 ppm in assay [1] and in assay [3] was above 80% throughout. Moreover, the pest or weed control at 32 ppm in assay [2] is above 80%.
As for `C#CCN(C(=O)c1cncc(C(F)(F)F)c1)C(C)c1ncnn1-c1ncccn1` (stereo not drawn) [Example 32, N-Prop-2-ynyl-N-[1-(2-pyrimidin-2-yl-1,2,4-triazol-3-yl)ethyl]-5-(trifluoromethyl)pyridine-3-carboxamide], the pest or weed control at 100 ppm in assay [1] and in assay [3] was above 80% throughout. Further, in assay [2], the pest or weed control at 32 ppm was above 80%.
Turning to `CC(c1ncnn1-c1ncccn1)N(CCF)C(=O)c1cncc(C(F)(F)F)c1` (stereo not drawn) [Example 30, N-(2-Fluoroethyl)-N-[1-(2-pyrimidin-2-yl-1,2,4-triazol-3-yl)ethyl]-5-(trifluoromethyl)pyridine-3-carboxamide], the pest or weed control at 100 ppm in assay [1] and in assay [3] was above 80% throughout. Further, in assay [2], the pest or weed control at 32 ppm was above 80%. In addition, the inhibition in vivo at 32 mg/kg in the assay with Lice (Polyplax serrata) is above 90%.
For the compound `Cc1nc(C(C)N(CC2CC2)C(=O)c2cccc(C#N)c2)n(-c2ccccn2)n1` (stereo not drawn) [Example 34, 3-Cyano-N-(cyclopropylmethyl)-N-[1-[5-methyl-2-(2-pyridyl)-1,2,4-triazol-3-yl]ethyl]benzamide], the pest or weed control at 100 ppm in assay [1] and in assay [3] was above 80% throughout.
On to `CC(c1ncnn1-c1ccccn1)N(Cc1cccc(Cl)c1)C(=O)c1cccc(C#N)c1` (stereo not drawn) [Example 5, N-[(3-Chlorophenyl)methyl]-3-cyano-N-[1-[2-(2-pyridyl)-1,2,4-triazol-3-yl]ethyl]benzamide], for which the pest or weed control at 100 ppm in assay [1] was above 80%.
With `CC(c1ncnn1-c1ccccn1)N(CC1CC1)C(=O)c1cc(Cl)cc(Cl)c1` (stereo not drawn) [Example 2, 3,5-Dichloro-N-(cyclopropylmethyl)-N-[1-[2-(2-pyridyl)-1,2,4-triazol-3-yl]ethyl]benzamide], the pest or weed control at 100 ppm in assay [1] and in assay [3] was above 80% each time. Moreover, the pest or weed control at 32 ppm in assay [2] is above 80%. Also, the pest or weed control at 200 ppm in assay [4] was above 80%.
As to `CC(c1ncnn1-c1ccccn1)N(CC1CC1)C(=O)c1cc(Cl)cc(C(F)(F)F)c1` (stereo not drawn) [Example 6, 3-Chloro-N-(cyclopropylmethyl)-N-[1-[2-(2-pyridyl)-1,2,4-triazol-3-yl]ethyl]-5-(trifluoromethyl)benzamide], the pest or weed control at 100 ppm in assay [1] and in assay [3] was above 80% each time. The pest or weed control at 32 ppm in assay [2] is above 80%. Further, in assay [4], the pest or weed control at 200 ppm is above 80%.
Take `C#CCN(C(=O)c1cc(Cl)cc(C(F)(F)F)c1)C(C)c1ncnn1-c1ccccn1` (stereo not drawn) [Example 7, 3-Chloro-N-prop-2-ynyl-N-[1-[2-(2-pyridyl)-1,2,4-triazol-3-yl]ethyl]-5-(trifluoromethyl)benzamide]: the pest or weed control at 100 ppm in assay [1] was above 80%. The pest or weed control at 32 ppm in assay [2] was above 80%. The pest or weed control at 200 ppm in assay [4] was above 80%. Moreover, the inhibition in vivo at 32 mg/kg in the assay with Lice (Polyplax serrata) is above 90%.
Turning to `C#CCN(C(=O)c1cc(C(F)(F)F)cc(C(F)(F)F)c1)[C@@H](C)c1ncnn1-c1ncccn1` [Example 46, N-Prop-2-ynyl-N-[(1S)-1-(2-pyrimidin-2-yl-1,2,4-triazol-3-yl)ethyl]-3,5-bis(trifluoromethyl)benzamide], the pest or weed control at 100 ppm in assay [1] was above 80%. Also, the pest or weed control at 32 ppm in assay [2] was above 80%. In addition, the pest or weed control at 200 ppm in assay [4] was above 80%.
For the compound `CCCN(C(=O)c1cc(Cl)cc(Cl)c1)C(C)c1ncnn1-c1ccccn1` (stereo not drawn) [Example 3], the pest or weed control at 100 ppm in assay [1] and in assay [3] was above 80% throughout. Further, the pest or weed control at 32 ppm in assay [2] is above 80%. Besides, in assay [4], the pest or weed control at 200 ppm is above 80%.
Regarding `CC(c1ncnn1-c1ncccn1)N(CCF)C(=O)c1cc(Cl)cc(OC(F)(F)F)c1` (stereo not drawn) [Example 22, 3-Chloro-N-(2-fluoroethyl)-N-[1-(2-pyrimidin-2-yl-1,2,4-triazol-3-yl)ethyl]-5-(trifluoromethoxy)benzamide], the pest or weed control at 100 ppm in assay [1] is above 80%. For the same compound, the pest or weed control at 32 ppm in assay [2] is above 80%. Also, the pest or weed control at 200 ppm in assay [4] was above 80%.
Take `CC(CN(CC1CC1)C(=O)c1cc(C(F)(F)F)cc(C(F)(F)F)c1)c1ncnn1-c1ccccn1` (stereo not drawn) [Example 42, 3-(Cyclopropylmethyl)-N-[2-[2-(2-pyridyl)-1,2,4-triazol-3-yl]propyl]-3,5-bis(trifluoromethyl)benzamide]: the pest or weed control at 100 ppm in assay [1] and in assay [3] was above 80% each time. For the same compound, the pest or weed control at 32 ppm in assay [2] was above 80%.
Consider `CC(c1ncnn1-c1ccccn1)N(CC1CC1)C(=S)c1cccc(C#N)c1` (stereo not drawn) [Example 47, 3-Cyano-N-(cyclopropylmethyl)-N-[1-[2-(2-pyridyl)-1,2,4-triazol-3-yl]ethyl]benzenecarbothioamide], for which the pest or weed control at 100 ppm in assay [1] and in assay [3] was above 80% in each case.
For the compound `CC(c1ncnn1-c1ccccn1)N(CC1CC1)C(=O)c1cccc(OC(F)(F)F)c1` (stereo not drawn) [Example 4, N-(Cyclopropylmethyl)-N-[1-[2-(2-pyridyl)-1,2,4-triazol-3-yl]ethyl]-3-(trifluoromethoxy)benzamide], the pest or weed control at 100 ppm in assay [1] and in assay [3] was above 80% throughout. In addition, the pest or weed control at 32 ppm in assay [2] was above 80%. Also, the pest or weed control at 200 ppm in assay [4] is above 80%.
Turning to `CC(c1ncnn1-c1ncccn1)N(CCCF)C(=O)c1cc(C(F)(F)F)cc(C(F)(F)F)c1` (stereo not drawn) [Example 21, N-(3-Fluoropropyl)-N-[1-(2-pyrimidin-2-yl-1,2,4-triazol-3-yl)ethyl]-3,5-bis(trifluoromethyl)benzamide], in assay [1], the pest or weed control at 100 ppm is above 80%. In addition, the pest or weed control at 32 ppm in assay [2] is above 80%. Further, in assay [4], the pest or weed control at 200 ppm is above 80%. In addition, the inhibition in vivo at 32 mg/kg in the assay on Lice (Polyplax serrata) was above 90%.
For the compound `CC(c1ncnn1-c1ccccn1)N(CC1CC1(Cl)Cl)C(=O)c1cc(C(F)(F)F)cc(C(F)(F)F)c1` (stereo not drawn) [Example 17, N-[(2,2-Dichlorocyclopropyl)methyl]-N-[1-[2-(2-pyridyl)-1,2,4-triazol-3-yl]ethyl]-3,5-bis(trifluoromethyl)benzamide], the pest or weed control at 100 ppm in assay [1] is above 80%. Besides, the pest or weed control at 32 ppm in assay [2] was above 80%. In addition, the pest or weed control at 200 ppm in assay [4] was above 80%. Further, in the assay on Lice (Polyplax serrata), the inhibition in vivo at 32 mg/kg is above 90%.
Take `C#CCN(C(=O)c1cncc(C(F)(F)F)c1)[C@@H](C)c1ncnn1-c1ncccn1` [Example 43, N-Prop-2-ynyl-N-[(1S)-1-(2-pyrimidin-2-yl-1,2,4-triazol-3-yl)ethyl]-5-(trifluoromethyl)pyridine-3-carboxamide]: the pest or weed control at 100 ppm in assay [1] and in assay [3] was above 80% each time. In addition, the pest or weed control at 32 ppm in assay [2] was above 80%.
Consider `CC(c1ncnn1-c1ncccn1)N(CCC(F)(F)F)C(=O)c1cc(Cl)cc(OC(F)(F)F)c1` (stereo not drawn) [Example 27, 3-Chloro-N-[1-(2-pyrimidin-2-yl-1,2,4-triazol-3-yl)ethyl]-5-(trifluoromethoxy)-N-(3,3,3-trifluoropropyl)benzamide], for which the pest or weed control at 100 ppm in assay [1] and in assay [3] was above 80% throughout. In addition, the pest or weed control at 32 ppm in assay [2] is above 80%. Moreover, the inhibition in vivo at 32 mg/kg in the assay with Lice (Polyplax serrata) was above 90%.
As to `CC(c1nnnn1-c1ncccn1)N(CC1CC1)C(=O)c1cc(C(F)(F)F)cc(C(F)(F)F)c1` (stereo not drawn) [Example 33, N-(Cyclopropylmethyl)-N-[1-(1-pyrimidin-2-yltetrazol-5-yl)ethyl]-3,5-bis(trifluoromethyl)benzamide], the pest or weed control at 32 ppm in assay [2] was above 80%.
